According to US8906962B2, “Compositions and methods for treating hair loss using non-naturally occurring prostaglandins” (Duke University, priority 2000, dated 2014):
pIC50: −log10 of the molar value.

How the values were obtained:
hFP = biological target: T1, hFP (Homo sapiens, UniProt P43088); experiment: Radioligand Binding Assay (competition with (3H) PGF2 on hFP membranes); conditions: relative to PGF2α, hFP membranes from transfected COS-7 cells
T1 construct: expressed in transfected cells; host or cells: COS-7 cells, transient transfection with LipofectAMINE; membranes prepared
Procedure: IC50 of a PGF can be determined relative to PGF2α using the Radioligand Binding Assay. As a control, the IC50 for PGF2α itself should be no lower than 1.0 nM and no higher than 5.0 nM.
In this assay, COS-7 cells are transiently transfected with the hFP recombinant plasmid using LipofectAMINE Reagent. Forty-eight hours later, the tranfected cells are washed with Hank's Balanced Salt Solution (HBSS, without CaCl2, MgCl2, MgSO4, or phenol red). The cells are detached with versene, and HBSS is added. The mixture is centrifuged at 200 g for 10 minutes, at 4° C. to pellet the cells. The pellet is resuspended in Phosphate-Buffered Saline-EDTA buffer (PBS; 1 mM EDTA; pH 7.4; 4° C.). The cells are disrupted by nitrogen cavitation (Parr model 4639), at 800 psi, for 15 minutes at 4° C. The mixture is centrifuged at 1000 g for 10 minutes at 4° C. The supernatant is centrifuged at 100,000 g for 60 minutes at 4° C. The pellet is resuspended to 1 mg protein/mL TME buffer (50 mM Tris; 10 mM MgCl2; 1 mM EDTA; pH 6.0; 4° C.) based on protein levels measured using the Pierce BCA Protein Assay kit. The homogenate is mixed for 10 seconds using a Kinematica POLYTRON® (available from KINEMATICA AG, Luzernerstrassel47A CH-6014 Littau, Switzerland). The membrane preparations are then stored at −80° C., until thawed for assay use.
The receptor competition binding assays are developed in a 96 well format. Each well contains […] of hFP membrane, 5 nM (3H) PGF2, and the various competing compounds in a total volume of […]. The plates are incubated at 23° C. for 1 hour. The incubation is terminated by rapid filtration using the Packard Filtermate 196 harvester through Packard UNIFILTER® GF/B filters (available from Packard Instrument Co., Inc. of Downers Grove Ill.) pre-wetted with TME buffer. The filter is washed four times with TME buffer. […] The plates are read on a Packard TOPCOUNT® Microplate Scintillation Counter (also available from Packard Instrument Co., Inc.)

C3H mice = experiment: Telogen Conversion Assay (topical, skin colour grade, hair growth); type: in vivo; conditions: for Grades (average animal score): day 26, visual grade 0 to 4 of skin colour (Table 4)
Procedure: PGF's are tested for their potential to grow hair using the Telogen Conversion Assay. The Telogen Conversion Assay measures the potential of a PGF to convert mice in the resting stage of the hair growth cycle (“telogen”), to the growth stage of the hair growth cycle (“anagen”).
Without intending to be limited by theory, there are three principal phases of the hair growth cycle: anagen, catagen, and telogen. It is believed that there is a longer telogen period in C3H mice (Harlan Sprague Dawley, Inc., Indianapolis, Ind.) from approximately 40 days of age until about 75 days of age, when hair growth is synchronized. It is believed that after 75 days of age, hair growth is no longer synchronized. Wherein about 40 day-old mice with dark fur (brown or black) are used in hair growth experiments, melanogenesis occurs along with hair (fur) growth wherein the topical application of hair growth inducers are evaluated. The Telogen Conversion Assay herein is used to screen PGF's for potential hair growth by measuring melanogenesis.
Three groups of 44 day-old C3H mice are used: a vehicle control group, a positive control group, and a test PGF group, wherein the test PGF group is administered a PGF used in the method of this invention. […] Day 1 is the first day of treatment. Typical dosage concentrations are set forth in Table 3, however the skilled artisan will readily understand that such concentrations may be modified.
The mice are treated topically Monday through Friday on their lower back (base of tail to the lower rib). A pipettor and tip are used to deliver 400 μL to each mouse's back. The 400 μL application is applied slowly while moving hair on the mouse to allow the application to reach the skin.
While each treatment is being applied to the mouse topically, a visual grade of from 0 to 4 will be given to the skin color in the application area of each animal. As a mouse converts from telogen to anagen, its skin color will become more bluish-black.

EP1 receptor = biological target: T2, EP1 receptor (Homo sapiens, UniProt P34995); experiment: Receptor selectivity statement (EP1 activation); conditions: stated without method; said to result in the side effect of pain
T2 sequence (P34995 1-402): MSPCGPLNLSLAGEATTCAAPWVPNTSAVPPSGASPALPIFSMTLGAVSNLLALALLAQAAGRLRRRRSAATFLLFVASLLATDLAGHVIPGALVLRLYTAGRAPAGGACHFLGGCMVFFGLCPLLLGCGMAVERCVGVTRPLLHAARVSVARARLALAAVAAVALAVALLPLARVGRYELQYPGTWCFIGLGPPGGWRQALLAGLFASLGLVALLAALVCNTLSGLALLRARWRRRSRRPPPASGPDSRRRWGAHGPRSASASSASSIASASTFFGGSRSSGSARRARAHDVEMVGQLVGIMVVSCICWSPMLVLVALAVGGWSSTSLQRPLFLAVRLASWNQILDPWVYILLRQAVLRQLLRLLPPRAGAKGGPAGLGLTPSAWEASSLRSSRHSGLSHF

T1 sequence (P43088 whole entry): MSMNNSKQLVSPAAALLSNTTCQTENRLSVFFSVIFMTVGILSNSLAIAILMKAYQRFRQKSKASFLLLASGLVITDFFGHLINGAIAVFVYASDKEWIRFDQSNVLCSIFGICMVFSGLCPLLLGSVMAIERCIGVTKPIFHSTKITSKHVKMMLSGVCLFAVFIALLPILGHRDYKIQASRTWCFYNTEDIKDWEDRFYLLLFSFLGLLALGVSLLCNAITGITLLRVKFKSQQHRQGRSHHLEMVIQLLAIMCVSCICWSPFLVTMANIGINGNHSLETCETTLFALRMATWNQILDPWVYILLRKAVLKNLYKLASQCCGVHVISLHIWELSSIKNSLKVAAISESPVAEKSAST

Compound: O=C(O)CCCCCC[C@@H]1[C@@H](CCC(O)c2nc3ccccc3s2)[C@H](O)C[C@@H]1O (stereo partly drawn) [13,14-dihydro-15-(2-benzathiozolyl)pentanor Prostaglandin F1α]
- pIC50 (hFP): 7.35
- hair growth (C3H mice; concentration not given): grew hair

Compound: O=C(O)CCCCCC[C@@H]1[C@@H](CCC(O)C#Cc2ccccc2F)[C@H](O)C[C@@H]1O (some centres unmarked) [Example 3-1]
- pIC50 (hFP): 7.72

Compound: O=C(O)CCCCCC[C@@H]1[C@@H](CCC(O)c2cc3ccccc3s2)[C@H](O)C[C@@H]1O (some centres unmarked) [Example 3-2]
- pIC50 (hFP): 7.57

Compound: COC(=O)CCC/C=C\C[C@@H]1[C@@H](/C=C/[C@@H](O)COc2cccc(C(F)(F)F)c2)[C@H](O)C[C@@H]1O [Fluprostenol Methyl Ester]
- hair growth / activity (C3H mice; 0.01% topical): grew hair
- Grades (average animal score) (C3H mice; 0.01%): 3.9
- hair growth / activity (C3H mice; 0.1% topical): grew hair
- Grades (average animal score) (C3H mice; 0.1%): 2.6

Compound: N[C@@H](Cc1cc(I)c(Oc2ccc(O)c(I)c2)c(I)c1)C(=O)O [T3 compound, 3,5,3′-triiodothyronine, reference compound]
- hair growth / activity (C3H mice; 0.01% topical): grew hair

Compound: Latanoprost [reference compound]
- hair growth / activity (C3H mice; 0.01% topical): active
- Grades (average animal score) (C3H mice; 0.01%): 0.71
- hair growth / activity (C3H mice; 0.1% topical): active
- Grades (average animal score) (C3H mice; 0.1%): 2.9
- activation of EP1 receptor (nonselective) (EP1 receptor): activates the EP1 receptor
